Literature values as cited in patent US20240066021A1, “METHODS FOR OPTIMIZING CFTR-MODULATOR THERAPY” (Children's Hospital Medical Center, priority 2021, published 2024).

Assays:
UFO = molecular target: T1, UFO (Homo sapiens, UniProt P30530); conditions: Target UFO, Gene Symbol AXL
T1 sequence (P30530 26-894): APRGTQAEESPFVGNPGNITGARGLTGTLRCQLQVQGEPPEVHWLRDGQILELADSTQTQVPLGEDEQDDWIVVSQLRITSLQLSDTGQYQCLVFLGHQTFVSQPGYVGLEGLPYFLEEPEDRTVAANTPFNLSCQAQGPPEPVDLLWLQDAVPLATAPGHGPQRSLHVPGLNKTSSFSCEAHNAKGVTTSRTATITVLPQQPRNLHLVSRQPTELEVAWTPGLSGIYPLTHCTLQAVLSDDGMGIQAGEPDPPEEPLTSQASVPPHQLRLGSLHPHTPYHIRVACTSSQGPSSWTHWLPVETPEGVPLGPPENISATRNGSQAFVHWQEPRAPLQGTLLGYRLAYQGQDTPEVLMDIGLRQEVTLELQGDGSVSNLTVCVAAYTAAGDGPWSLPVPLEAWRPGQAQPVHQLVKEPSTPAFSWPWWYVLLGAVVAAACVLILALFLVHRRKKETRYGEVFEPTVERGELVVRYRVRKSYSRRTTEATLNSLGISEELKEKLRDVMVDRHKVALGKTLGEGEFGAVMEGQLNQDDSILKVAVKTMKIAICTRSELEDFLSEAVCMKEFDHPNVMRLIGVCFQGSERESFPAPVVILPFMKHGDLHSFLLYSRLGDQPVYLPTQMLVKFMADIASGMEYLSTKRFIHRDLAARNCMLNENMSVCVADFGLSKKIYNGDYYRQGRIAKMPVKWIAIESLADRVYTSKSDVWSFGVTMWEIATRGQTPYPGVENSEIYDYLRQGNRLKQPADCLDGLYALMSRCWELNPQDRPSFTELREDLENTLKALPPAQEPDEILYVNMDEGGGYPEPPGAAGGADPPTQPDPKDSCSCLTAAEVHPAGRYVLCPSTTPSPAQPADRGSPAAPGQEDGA

CENP-E = CENP-E (Homo sapiens, UniProt Q02224); conditions: Target CENP-E, Gene Symbol CENPE
CENP-E, sequence (Q02224 whole entry): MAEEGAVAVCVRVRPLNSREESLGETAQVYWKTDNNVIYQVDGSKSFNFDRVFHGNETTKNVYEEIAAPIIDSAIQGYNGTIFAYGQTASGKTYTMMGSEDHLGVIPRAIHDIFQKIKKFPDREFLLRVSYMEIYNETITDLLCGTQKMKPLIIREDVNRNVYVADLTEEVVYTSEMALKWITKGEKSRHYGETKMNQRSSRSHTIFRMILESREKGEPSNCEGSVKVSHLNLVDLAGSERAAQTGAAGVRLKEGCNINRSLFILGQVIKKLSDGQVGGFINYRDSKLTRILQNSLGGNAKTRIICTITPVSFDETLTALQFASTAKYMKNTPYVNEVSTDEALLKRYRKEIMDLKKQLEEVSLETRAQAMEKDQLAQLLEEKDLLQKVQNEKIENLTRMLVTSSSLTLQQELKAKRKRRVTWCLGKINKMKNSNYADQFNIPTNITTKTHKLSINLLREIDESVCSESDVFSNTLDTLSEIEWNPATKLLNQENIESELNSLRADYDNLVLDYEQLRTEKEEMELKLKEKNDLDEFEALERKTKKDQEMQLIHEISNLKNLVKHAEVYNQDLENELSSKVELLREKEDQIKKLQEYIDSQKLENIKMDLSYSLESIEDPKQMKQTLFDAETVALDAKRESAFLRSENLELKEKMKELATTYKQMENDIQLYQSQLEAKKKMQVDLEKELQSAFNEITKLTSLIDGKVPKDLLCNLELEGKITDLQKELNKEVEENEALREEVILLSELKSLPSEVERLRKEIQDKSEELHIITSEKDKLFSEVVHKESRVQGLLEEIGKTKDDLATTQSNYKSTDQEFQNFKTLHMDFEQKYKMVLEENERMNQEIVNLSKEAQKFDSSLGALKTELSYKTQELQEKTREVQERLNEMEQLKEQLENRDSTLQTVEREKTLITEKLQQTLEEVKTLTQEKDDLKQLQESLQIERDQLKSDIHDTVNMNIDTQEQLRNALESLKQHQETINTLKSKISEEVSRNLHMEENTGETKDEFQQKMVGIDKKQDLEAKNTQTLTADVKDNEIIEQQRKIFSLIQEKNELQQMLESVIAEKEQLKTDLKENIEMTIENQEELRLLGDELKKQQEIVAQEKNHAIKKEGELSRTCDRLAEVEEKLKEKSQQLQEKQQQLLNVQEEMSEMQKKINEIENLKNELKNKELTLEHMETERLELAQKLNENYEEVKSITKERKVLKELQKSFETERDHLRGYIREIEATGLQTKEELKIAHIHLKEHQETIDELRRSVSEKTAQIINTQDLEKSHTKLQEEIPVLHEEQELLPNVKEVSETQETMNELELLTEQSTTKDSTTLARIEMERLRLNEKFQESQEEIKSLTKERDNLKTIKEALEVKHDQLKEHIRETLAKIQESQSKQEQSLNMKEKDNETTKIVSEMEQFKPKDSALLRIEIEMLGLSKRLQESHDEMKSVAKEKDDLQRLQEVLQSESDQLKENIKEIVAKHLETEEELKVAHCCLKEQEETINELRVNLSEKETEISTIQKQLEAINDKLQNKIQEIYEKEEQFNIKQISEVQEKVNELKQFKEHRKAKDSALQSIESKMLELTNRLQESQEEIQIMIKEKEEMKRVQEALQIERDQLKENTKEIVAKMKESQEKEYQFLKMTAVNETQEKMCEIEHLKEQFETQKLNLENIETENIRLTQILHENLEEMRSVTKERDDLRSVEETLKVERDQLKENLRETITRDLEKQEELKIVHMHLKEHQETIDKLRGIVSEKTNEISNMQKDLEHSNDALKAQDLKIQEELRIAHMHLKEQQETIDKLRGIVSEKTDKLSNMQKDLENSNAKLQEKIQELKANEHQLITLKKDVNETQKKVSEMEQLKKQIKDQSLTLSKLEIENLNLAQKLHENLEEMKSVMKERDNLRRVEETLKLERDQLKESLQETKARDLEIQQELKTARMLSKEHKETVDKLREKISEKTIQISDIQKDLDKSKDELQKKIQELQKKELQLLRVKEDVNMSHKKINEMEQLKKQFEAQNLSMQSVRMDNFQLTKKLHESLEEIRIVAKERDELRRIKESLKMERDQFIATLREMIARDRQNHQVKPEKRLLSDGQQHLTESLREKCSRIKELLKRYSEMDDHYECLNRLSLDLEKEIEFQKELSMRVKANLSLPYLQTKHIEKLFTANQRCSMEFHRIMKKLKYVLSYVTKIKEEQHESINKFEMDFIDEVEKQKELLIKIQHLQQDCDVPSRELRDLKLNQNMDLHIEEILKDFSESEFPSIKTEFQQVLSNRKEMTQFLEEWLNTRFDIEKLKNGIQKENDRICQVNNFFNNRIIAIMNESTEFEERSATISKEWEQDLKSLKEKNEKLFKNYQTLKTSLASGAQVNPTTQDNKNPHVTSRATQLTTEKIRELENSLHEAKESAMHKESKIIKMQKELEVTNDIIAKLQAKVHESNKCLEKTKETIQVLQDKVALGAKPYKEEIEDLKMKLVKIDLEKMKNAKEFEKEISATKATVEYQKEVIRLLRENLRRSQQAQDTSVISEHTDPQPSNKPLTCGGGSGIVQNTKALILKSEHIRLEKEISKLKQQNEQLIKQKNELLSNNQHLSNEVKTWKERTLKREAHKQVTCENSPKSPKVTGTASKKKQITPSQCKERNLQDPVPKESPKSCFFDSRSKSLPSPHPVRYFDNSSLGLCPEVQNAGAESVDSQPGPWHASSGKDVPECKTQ

Row | Compound | Effect (UFO) | Effect (CENP-E)
1 | COc1cc2c(Oc3ccc(NC(=O)C4(C(=O)Nc5ccc(F)cc5)CC4)cc3F)ccnc2cc1OCCCN1CCOCC1 [Foretinib] | Inhibition | –
2 | CC(C)Oc1ccc(C(=O)N[C@H](CNC(=O)CN(C)C)Cc2ccc(-c3cn4cccc([C@H](C)O)c4n3)cc2)cc1Cl [GSK-923295] | – | Inhibition
